The subject of test [1] is E. coli clinical isolates. The test is described as follows: MIC by broth microdilution against clinical isolates of E. coli. In kind it is cell-based. For orientation: Broth dilution looks for growth in wells or tubes with falling amounts of substance.
Test [2] concerns CTX-M-15-producer isogenic strain. The test is described as follows: Disc diffusion test, CTX-M-15-producer. Format: cell-based, E. coli. The settings on record: cefotaxime disc 30 µg. Background: A growth-free zone around the sample is the usual read-out of agar diffusion tests.
Test [3] relates to isogenic strain producing CTX-M-15. The test is described as follows: Time-kill kinetic assay, CTX-M-15-producing isogenic strain. In kind it is cell-based, E. coli. To be noted: cefotaxime 2 µg/mL + inhibitor 4 µg/mL; CTX-M-15 strain.
In test [4] the test system is isogenic strain producing KPC-2. The test is described as follows: Time-kill kinetic assay, KPC-2-producing isogenic strain. In kind it is cell-based, E. coli. To be noted: imipenem 4 µg/mL + inhibitor 4 µg/mL, KPC-2 strain.
Test [5] relates to K. pneumoniae clinical isolates. The test is described as follows: MIC by broth microdilution against clinical isolates of K. pneumoniae. To be noted: for MIC range: K. pneumoniae clinical isolates, 25 isolates. Format: cell-based.
Test [6] relates to KPC-2-producer isogenic strain. The test is described as follows: Disc diffusion test, KPC-2-producer. In kind it is cell-based, E. coli. To be noted: imipenem disc 10 µg.
Test [7] has as its system CTX-M-15. To be noted: ref 17 (Faheem et al.); cited from earlier work.
Test [8] has as its target CTX-M-15 (Escherichia coli, UniProt Q9EXV5). The test is described as follows: Purified β-lactamase inhibition assay with nitrocefin, CTX-M-15. Format: biochemical, E. coli.
A further test deals with KPC-2 (Klebsiella pneumoniae, UniProt Q9F663). The test is described as follows: Purified β-lactamase inhibition assay with nitrocefin, KPC-2. Format: biochemical, K. pneumoniae.

Structures are written as SMILES. Converted amounts (≈) assume the structure as drawn.

Sequence of KPC-2 (Q9F663 25-293, looked up): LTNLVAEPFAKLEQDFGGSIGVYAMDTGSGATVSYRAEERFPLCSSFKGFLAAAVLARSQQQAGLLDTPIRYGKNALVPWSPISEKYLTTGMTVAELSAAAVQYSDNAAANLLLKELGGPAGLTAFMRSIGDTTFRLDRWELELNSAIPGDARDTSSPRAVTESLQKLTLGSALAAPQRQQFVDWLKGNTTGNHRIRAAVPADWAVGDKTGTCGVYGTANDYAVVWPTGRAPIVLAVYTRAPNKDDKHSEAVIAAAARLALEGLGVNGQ
Sequence of CTX-M-15 (Escherichia coli, UniProt Q9EXV5) (Q9EXV5 29-291): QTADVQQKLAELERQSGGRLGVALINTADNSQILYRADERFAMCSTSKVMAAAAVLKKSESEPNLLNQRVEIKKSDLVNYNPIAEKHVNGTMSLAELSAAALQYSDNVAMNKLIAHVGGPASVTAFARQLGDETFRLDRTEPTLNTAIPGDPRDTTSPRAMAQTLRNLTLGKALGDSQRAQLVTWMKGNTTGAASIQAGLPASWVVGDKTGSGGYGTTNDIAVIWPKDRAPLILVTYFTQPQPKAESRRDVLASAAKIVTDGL

One may read the MIC90 as an inhibitory concentration at the 90% level, which refers to growth in some studies and to a panel of isolates in others. Read a low MIC90 as greater potency. Consider `CC1=C(C(=O)O)N2C(=O)[C@@H](NC(=O)[C@H](N)c3ccccc3)[C@H]2SC1` [Cefalexin, cefalexin], for which the MIC90 in [1] (Escherichia coli) came out at 512 µg/mL (≈ 1470 µM).
In [1] (E. coli clinical isolates, 25 isolates), `CO/N=C(\C(=O)N[C@@H]1C(=O)N2C(C(=O)O)=C(COC(C)=O)CS[C@H]12)c1csc(N)n1` [Cefotaxime, cefotaxime] displayed an MIC range of 64 to 128 µg/mL. In addition, the “disc diffusion result, antibiotic disc only” value in [2] is listed as “resistance”.
As for `O=C(O)[C@H]1/C(=C/CO)O[C@@H]2CC(=O)N21` [Clavulanic acid, clavulanic acid], the “incubation time after which viable count was below the limit of detection” value in test [3] is 10 h. Also, in test [4] (after 6 h of incubation), the “reduction in CFU” value is reported as 2 log10.
For the compound `C[C@@H](O)[C@H]1C(=O)N2C(C(=O)O)=C(S[C@@H]3CN[C@H](C(=O)Nc4cccc(C(=O)O)c4)C3)[C@H](C)[C@H]12` [Ertapenem, ertapenem], the MIC range in test [5] and in test [5] (listed as ertapenem) was 8 to 256 µg/mL throughout. In test [5] (Klebsiella pneumoniae), this compound had an MIC90 of 32 µg/mL (≈ 67.3 µM).
`C[C@@H](O)[C@H]1C(=O)N2C(C(=O)O)=C(SCCN=CN)C[C@H]12` [Imipenem, imipenem]: the “disc diffusion result, antibiotic disc only” value in test [6] is listed as “resistance”. In test [5], the MIC range was in the range of 64 to 512 µg/mL.
As usually defined, the IC50 is the concentration that inhibits the measured activity by half. Low values mean inhibition by little substance, high ones a need for much substance. For orientation: Ki means the dissociation constant of the complex between target and ligand, obtained from inhibition or displacement. A high value points to a looser hold on the target. On to `C[C@]1(Cn2ccnn2)[C@H](C(=O)O)N2C(=O)C[C@H]2S1(=O)=O` [Tazobactam, tazobactam], for which the “incubation time after which viable count was below the limit of detection” value in test [3] was 6 h; in test [4], 8 h. The “decrease of the MICs of some cephalosporin antibiotics” value with CTX-M-15 [7] is 2–16 folds. The IC50 was 58.3 µM against CTX-M-15 [8] and 69.6 µM against KPC-2. Besides, the Ki at CTX-M-15 [8] (Ki, CTX-M-15, nitrocefin substrate) was roughly 31 µM; on KPC-2, 29.2 µM.

Source of the values: PMC11308155 (Microbial Cell Factories, 2024).
